Results taken from US8871767B2, “2-arylimidazo[1,2-B]pyridazine, 2-phenylimidazo[1,2-A]pyridine, and 2-phenylimidazo[1,2-A]pyrazine derivatives” (Hengrui (USA) Ltd., priority 2010, dated 2014).
Where two headings read alike, the source gives them in different places.

Experiments:
[1] = system: Hedgehog pathway activation on 10T1/2/Smo#3 cells (C3H10T1/2 cells transfected with human Smoothened receptor); experiment: Hedgehog pathway activation on 10T1/2/Smo#3 cells measured by ALP activity; assay type: cell-based
Method in brief: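 Inhibition of alkaline phosphatase induction, read fluorometrically from 4-methylumbelliferyl phosphate conversion, gave IC50 values; CellTiter-Blue tracked viability in parallel. Cells were the human Smo-transfected 10T1/2/Smo#3 pool, stimulated by 10-20% hShh conditioned medium or the Smo agonist SAG (500 nM).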

[2] = system: Hedgehog pathway activation (GLi-luciferase reporter) in Shh Light II reporter cells; experiment: Hedgehog pathway activation on Shh Light II reporter cells measured by luciferase activity; assay type: cell-based
Method in brief: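 Shh Light II reporter cells carrying a hedgehog-responsive GLi-luciferase reporter were stimulated either with 500 nM SAG, a direct Smoothened agonist, or with conditioned media containing human Sonic Hedgehog (hShh). Test compounds were evaluated for blocking this pathway activation, quantified by luciferase activity. Cell viability was monitored in parallel with the Celltiter-Blue® assay.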

[3] = Mus musculus, C3H 10T1/2, 10T1/2/Smo#3 cells, measured by ALP activity, read-out: ALP (IC50, inhibition of Hedgehog pathway activation)
[4] = Mus musculus, Shh Light II, hShh activation, read-out: Shh (IC50, inhibition of Hedgehog pathway activation)
[5] = Mus musculus, C3H 10T1/2, 10T1/2/Smo#3 cells, hShh activation, ALP activity, read-out: 10T1/2/Smo#3 ALP activity (hShh Activation)
[6] = Mus musculus, Shh Light II, SAG activation (500 nM SAG), read-out: Shh Light II luciferase activity (SAG activation)
[7] = Mus musculus, Shh Light II, hShh activation, read-out: Shh Light II luciferase activity (hShh activation)

IC50 [1, 3]	IC50 [2, 4]	IC50 [1, 5]	IC50 [2, 6]	IC50 [2, 7]	IC50 ([1]; 10T1/2/Smo#3 cells, measured by ALP activity, read-out: ALP (IC50, inhibition of Hedgehog pathway activation))	IC50 ([2]; hShh activation, read-out: Shh (IC50, inhibition of Hedgehog pathway activation))	Compound
424 nM	59 nM						Cc1ccc(-c2cn3nc(-c4cccc(C(=O)Nc5ccccc5N)c4)ccc3n2)cc1NC(=O)C(C)(C)C [compound 598]
248 nM	48 nM						Cc1ccc(-c2cn3nc(NCc4ccc(C(=O)Nc5ccccc5N)cc4)ccc3n2)cc1NC(=O)C(C)(C)C [compound 599]
> 10000 nM	130 nM						Cc1ccc(-c2cn3nc(NCc4ccc(C(=O)NOC5CCCCO5)cc4)ccc3n2)cc1NC(=O)C(C)(C)C (stereo not drawn) [compound 600]
40 nM	66 nM						Cc1ccc(-c2cn3nc(-c4cc(C(N)=NO)ccc4C(F)(F)F)ccc3n2)cc1NC(=O)C(C)(C)C [compound 601]
314 nM	155 nM						CCOC(=O)C=Cc1cccc(C(=O)Nc2ccc3nc(-c4ccc(C)c(NC(=O)C(C)(C)C)c4)cn3n2)c1 [compound 602]
62 nM	30 nM	< 300 nM	< 300 nM	< 300 nM			Cc1ccc(-c2cn3nc(NC(=O)c4cccc(C=CC(=O)NO)c4)ccc3n2)cc1NC(=O)C(C)(C)C [compound 605]
484 nM	66 nM						Cc1ccc(-c2cn3nc(NS(=O)(=O)c4cccc(C=CC(=O)NO)c4)ccc3n2)cc1NC(=O)C(C)(C)C [compound 606]
145 nM	198 nM	< 300 nM	300 to 3000 nM	< 300 nM			Cc1ccc(-c2cn3nc(-c4cccnc4C(F)(F)F)ccc3n2)cc1NC(=O)c1cccc(C=CC(=O)Nc2ccccc2N)c1 [compound 623, 3-(3-((2-aminophenyl)amino)-3-oxoprop-1-en-1-yl)-N-(2-methyl-5-(6-(2-(trifluoromethyl)pyridin-3-yl)imidazo[1,2-b]pyridazin-2-yl)phenyl)benzamide]
					3540 nM	6230 nM	N-(2-(2-(trifluoromethyl)pyridin-3-yl)-5-(6-(2-(trifluoromethyl)pyridin-3-yl)imidazo[1,2-b]pyridazin-2-yl)phenyl)pivalamide [Example 663]
